Data on nine molecules can be found in ChEMBL document CHEMBL3044696, “Synthesis, antimalarial-, and antibacterial activity evaluation of some new 4-aminoquinoline derivatives” (2013).

Assay [1] relates to Bacillus cereus. Kind of assay: Antibacterial activity against Bacillus cereus ATCC 10876 assessed as growth inhibition at 25 ug/disk after 24 hr by Kirby-Bauer disk diffusion method. It counts as functional. As to conditions: ATCC 10876, 24 h, read-out: DIZ. (In agar diffusion tests the substance spreads into inoculated agar from a disc or well.)
Assay [2] relates to Bacillus subtilis. Kind of assay: Antibacterial activity against Bacillus subtilis ATCC 11774 assessed as growth inhibition at 25 ug/disk after 24 hr by Kirby-Bauer disk diffusion method. Type of assay: functional. As to conditions: ATCC 11774, 24 h, read-out: DIZ.
Assay [3] relates to Bacillus subtilis. Kind of assay: Antibacterial activity against Bacillus subtilis ATCC 11774 assessed as growth inhibition at 50 ug/disk after 24 hr by Kirby-Bauer disk diffusion method. Type of assay: functional. Conditions: ATCC 11774, 24 h, read-out: DIZ.
The subject of assay [4] is Plasmodium falciparum. Kind of assay: Antimalarial activity against chloroquine-sensitive Plasmodium falciparum 3D7 infected human RBC assessed as dead ring and trophozoite stage of parasite at 50 ug/mL after 40 hr by Giemsa staining-based light microscopic analysis relative to control. Type of assay: functional.
For assay [5], the system named is Pseudomonas aeruginosa. Kind of assay: Antibacterial activity against Pseudomonas aeruginosa ATCC 10662 assessed as growth inhibition at 25 ug/disk after 24 hr by Kirby-Bauer disk diffusion method. It counts as functional. Conditions: ATCC 10662, 24 h, read-out: DIZ.
Assay [6] deals with Klebsiella pneumoniae. Kind of assay: Antibacterial activity against Klebsiella pneumoniae ATCC 33495 assessed as growth inhibition at 25 ug/disk after 24 hr by Kirby-Bauer disk diffusion method. Type of assay: functional. As to conditions: ATCC 33495, 24 h, read-out: DIZ.
The subject of assay [7] is Escherichia coli. Kind of assay: Antibacterial activity against Escherichia coli ATCC 10536 assessed as growth inhibition at 25 ug/disk after 24 hr by Kirby-Bauer disk diffusion method. Conditions: ATCC 10536, 24 h, read-out: DIZ. Type of assay: functional.
For assay [8], the system named is Staphylococcus aureus. Kind of assay: Antibacterial activity against Staphylococcus aureus ATCC BAA 1026 assessed as growth inhibition at 25 ug/disk after 24 hr by Kirby-Bauer disk diffusion method. Type of assay: functional. Conditions: ATCC BAA 1026, 24 h, read-out: DIZ.
The subject of assay [9] is Klebsiella pneumoniae. Kind of assay: Antibacterial activity against Klebsiella pneumoniae ATCC 33495 assessed as growth inhibition at 50 ug/disk after 24 hr by Kirby-Bauer disk diffusion method. Type of assay: functional. Conditions: ATCC 33495, 24 h, read-out: DIZ.
The test system of assay [10] is Staphylococcus aureus. Kind of assay: Antibacterial activity against Staphylococcus aureus ATCC BAA 1026 assessed as growth inhibition at 50 ug/disk after 24 hr by Kirby-Bauer disk diffusion method. Type of assay: functional. Conditions: ATCC BAA 1026, 24 h, read-out: DIZ.
Assay [11] concerns Escherichia coli. Kind of assay: Antibacterial activity against Escherichia coli ATCC 10536 assessed as growth inhibition at 50 ug/disk after 24 hr by Kirby-Bauer disk diffusion method. It counts as functional. As to conditions: ATCC 10536, 24 h, read-out: DIZ.
In assay [12] the test system is Pseudomonas aeruginosa. Kind of assay: Antibacterial activity against Pseudomonas aeruginosa ATCC 10662 assessed as growth inhibition at 50 ug/disk after 24 hr by Kirby-Bauer disk diffusion method. Type of assay: functional. Conditions: ATCC 10662, 24 h, read-out: DIZ.
Assay [13] concerns Plasmodium falciparum. Kind of assay: Antimalarial activity against chloroquine-sensitive Plasmodium falciparum 3D7 infected human RBC assessed as dead ring and trophozoite stage of parasite at 0.4 ug/mL after 40 hr by Giemsa staining-based light microscopic analysis relative to control.
Assay [14] deals with Pseudomonas aeruginosa. Kind of assay: Antibacterial activity against Pseudomonas aeruginosa ATCC 10662 assessed as growth inhibition at 5 ug/disk after 24 hr by Kirby-Bauer disk diffusion method. It counts as functional. As to conditions: ATCC 10662, 24 h, read-out: DIZ.
Assay [15] deals with Klebsiella pneumoniae. Kind of assay: Antibacterial activity against Klebsiella pneumoniae ATCC 33495 assessed as growth inhibition at 5 ug/disk after 24 hr by Kirby-Bauer disk diffusion method. Type of assay: functional. As to conditions: ATCC 33495, 24 h, read-out: DIZ.
For assay [16], the system named is Escherichia coli. Kind of assay: Antibacterial activity against Escherichia coli ATCC 10536 assessed as growth inhibition at 5 ug/disk after 24 hr by Kirby-Bauer disk diffusion method. It counts as functional. Conditions: ATCC 10536, 24 h, read-out: DIZ.
Assay [17] deals with Staphylococcus aureus. Kind of assay: Antibacterial activity against Staphylococcus aureus ATCC BAA 1026 assessed as growth inhibition at 5 ug/disk after 24 hr by Kirby-Bauer disk diffusion method. It counts as functional. As to conditions: ATCC BAA 1026, 24 h, read-out: DIZ.
In assay [18] the test system is Bacillus cereus. Kind of assay: Antibacterial activity against Bacillus cereus ATCC 10876 assessed as growth inhibition at 5 ug/disk after 24 hr by Kirby-Bauer disk diffusion method. Conditions: ATCC 10876, 24 h, read-out: DIZ. Type of assay: functional.
The subject of assay [19] is Bacillus subtilis. Kind of assay: Antibacterial activity against Bacillus subtilis ATCC 11774 assessed as growth inhibition at 5 ug/disk after 24 hr by Kirby-Bauer disk diffusion method. Conditions: ATCC 11774, 24 h, read-out: DIZ. Type of assay: functional.

`Cc1ccc(C2SCCC(=O)N2CCCNc2ccnc3cc(Cl)ccc23)s1` (centres undefined): the zone of inhibition at 25 µg/disc stood at 13.9 mm with Bacillus cereus [1]; 14.2 mm with Bacillus subtilis [2]; 13.9 mm in the assay on Pseudomonas aeruginosa [5]; 13.9 mm with Klebsiella pneumoniae [6]; 14.2 mm in the assay with Escherichia coli [7]; 14 mm in the assay with Staphylococcus aureus [8]. For the same molecule, the zone of inhibition at 50 µg/disc in the assay on Bacillus subtilis [3], in the assay on Klebsiella pneumoniae [9] and in the assay with Staphylococcus aureus [10] was 23.9 mm throughout. The Activity in the assay with Plasmodium falciparum [4] is given as 22%.

`O=C1CCSC(c2ccccc2F)N1CCCNc1ccnc2cc(Cl)ccc12` (centres undefined): the zone of inhibition at 25 µg/disc with Bacillus cereus [1] was determined as 14.3 mm; with Bacillus subtilis [2], 18.8 mm; in the assay on Pseudomonas aeruginosa [5], 14.1 mm; with Klebsiella pneumoniae [6], 14.3 mm; in the assay on Escherichia coli [7] it was 14.3 mm; in the assay with Staphylococcus aureus [8], 14.2 mm. The Activity in the assay with Plasmodium falciparum [4] is on record as 39%. Further, in the assay with Staphylococcus aureus [10], the zone of inhibition at 50 µg/disc worked out at 23.9 mm.

Take `COc1ccc(C2SCCC(=O)N2CCCNc2ccnc3cc(Cl)ccc23)cc1` (centres undefined): the zone of inhibition at 25 µg/disc in the assay with Bacillus cereus [1] stood at 14.3 mm; in the assay on Bacillus subtilis [2], 14.2 mm; in the assay on Pseudomonas aeruginosa [5] it was 14.3 mm; in the assay on Klebsiella pneumoniae [6], 14.1 mm; in the assay with Escherichia coli [7], 14.2 mm; with Staphylococcus aureus [8] it was 14.1 mm. In addition, the zone of inhibition at 50 µg/disc in the assay with Bacillus subtilis [3] is 23.3 mm; with Klebsiella pneumoniae [9], 24.2 mm; in the assay on Escherichia coli [11], 24.4 mm; in the assay with Staphylococcus aureus [10], 24.1 mm. Further, in the assay on Plasmodium falciparum [4], the Activity was 32%.

For `O=C1CCSC(c2cccc(O)c2)N1CCCNc1ccnc2cc(Cl)ccc12` (centres undefined), the zone of inhibition at 25 µg/disc in the assay on Bacillus cereus [1] was 14.1 mm; in the assay with Bacillus subtilis [2], 13.8 mm; in the assay on Pseudomonas aeruginosa [5] it was 13.9 mm; with Klebsiella pneumoniae [6], 14 mm; in the assay on Escherichia coli [7] it was 13.9 mm; in the assay with Staphylococcus aureus [8], 14.3 mm. The Activity in the assay on Plasmodium falciparum [4] amounted to 39.5%. Further, the results for the zone of inhibition at 50 µg/disc with Pseudomonas aeruginosa [12] and in the assay on Escherichia coli [11] were 23.9 mm and 24.3 mm, respectively.

Regarding `O=C1CCSC(c2ccco2)N1CCCNc1ccnc2cc(Cl)ccc12` (centres undefined), the zone of inhibition at 25 µg/disc is 14.2 mm in the assay on Bacillus cereus [1]; 14.1 mm with Bacillus subtilis [2]; 13.7 mm with Pseudomonas aeruginosa [5]; 14.2 mm with Klebsiella pneumoniae [6]; 14 mm in the assay on Escherichia coli [7]; 14.3 mm in the assay on Staphylococcus aureus [8]. The zone of inhibition at 50 µg/disc in the assay with Bacillus subtilis [3] came to 23.5 mm; in the assay with Klebsiella pneumoniae [9], 24.1 mm; in the assay with Escherichia coli [11], 24.1 mm; with Staphylococcus aureus [10], 24.2 mm. In addition, the Activity with Plasmodium falciparum [4] amounted to 38.5%.

As to `CCC1SCCC(=O)N1CCCNc1ccnc2cc(Cl)ccc12` (centres undefined), the zone of inhibition at 25 µg/disc was determined as 13.5 mm with Bacillus cereus [1]; 13.1 mm in the assay with Bacillus subtilis [2]; 13.5 mm in the assay on Pseudomonas aeruginosa [5]; 13.2 mm in the assay with Klebsiella pneumoniae [6]; 13.7 mm in the assay on Escherichia coli [7]; 12.9 mm in the assay with Staphylococcus aureus [8]. The zone of inhibition at 50 µg/disc in the assay on Bacillus subtilis [3] was determined as 23.2 mm; in the assay on Pseudomonas aeruginosa [12], 23.1 mm; with Klebsiella pneumoniae [9] it was 23.1 mm; with Escherichia coli [11] it was 23.4 mm; with Staphylococcus aureus [10], 23.1 mm. Besides, the Activity in the assay on Plasmodium falciparum [4] worked out at 18.5%.

For `CN(C)c1ccc(C2SCCC(=O)N2CCCNc2ccnc3cc(Cl)ccc23)cc1` (centres undefined), the zone of inhibition at 25 µg/disc amounted to 14 mm with Bacillus cereus [1]; 14.3 mm with Bacillus subtilis [2]; 13.7 mm in the assay with Pseudomonas aeruginosa [5]; 14.1 mm with Klebsiella pneumoniae [6]; 14.3 mm in the assay with Escherichia coli [7]; 13.9 mm with Staphylococcus aureus [8]. Further, the zone of inhibition at 50 µg/disc in the assay on Bacillus subtilis [3] was found to be 23.7 mm; with Klebsiella pneumoniae [9], 24.1 mm; in the assay with Escherichia coli [11] it was 23.9 mm; in the assay with Staphylococcus aureus [10], 23.9 mm. Also, the Activity in the assay on Plasmodium falciparum [4] came out at 25%.

For `CCN(CC)CCCC(C)Nc1ccnc2cc(Cl)ccc12` (centres undefined) [CHLOROQUINE], in the assay with Plasmodium falciparum [13], the Activity came out at 67%.

For `CC1COc2c(N3CCN(C)CC3)c(F)cc3c(=O)c(C(=O)O)cn1c23` (centres undefined) [OFLOXACIN], the zone of inhibition at 5 µg/disc is 20.8 mm with Pseudomonas aeruginosa [14]; 20.3 mm with Klebsiella pneumoniae [15]; 21.5 mm in the assay with Escherichia coli [16]; 21.7 mm in the assay with Staphylococcus aureus [17]; 20.3 mm with Bacillus cereus [18]; 20.7 mm in the assay on Bacillus subtilis [19].
